Consider 89 compounds from a melting point compilation (Tetko et al.; mined from patent text by program, amines drawn as free bases though some values may be those of a salt).

Compound `CNc1nn2cc(-c3ccccc3)nc2s1` showed a melting point of 177 °C.

For the compound `CCOC(=O)c1cnc(=O)n2c1sc1cc(OC)ccc12`, the melting point was 231 to 232 °C.

`CC(=O)C(=NNc1cccc(C)c1)Sc1ccc(Cl)cc1` returned a melting point of 112 to 114 °C.

The compound `COc1cc(C(=O)O)ccc1Cn1nc(OC)c2ccc(NC(=O)OC3CCCC3)cc21` gave a melting point of 199 to 200 °C.

In turn, `COc1cc(CO)ccc1OCc1coc(-c2ccco2)n1` returned a melting point of 117 to 118 °C.

Turning to `CC(=O)Nc1cccc2c(=O)[nH]c3ccccc3c(=O)c12`, the melting point was 270 to 272 °C.

On to `Cc1c(NC(=O)c2ccc(OC[C@@H]3CCCO3)cc2)ccc2c1cc(CNC1CCCC1)n2C`, for which the melting point came out at 189 °C.

For `O=C(O)c1cc(-n2c(-c3ccccc3)cc3ccccc32)ccc1O`, the melting point was 210 to 212 °C.

`CCOC(=O)[C@@H]1C[C@H](Br)CN1C(=O)OC(C)(C)C` registered a melting point of 32 to 34 °C.

`O=C(O)CCSSc1ccc([N+](=O)[O-])cc1` displayed a melting point of 98 to 100 °C.

`COc1cc(OC)c2c(c1)N1CCCCC1CC2=O` (centres undefined): the melting point lay within 91 to 94 °C.

`CC(C)C1(C)N=C2c3ncc(C4OCCO4)cc3C(=O)N2C1=O` (centres undefined): the melting point fell in the range of 102 to 104 °C.

Compound `COc1ccc2c(c1)C(O)(CCNC(C)=O)CCC2` (centres undefined) gave a melting point of 106 to 109 °C.

Regarding `CC(C)(C)OC(=O)Nc1c(C#CBr)c(C#N)nn1-c1c(Cl)cc(C(F)(F)F)cc1Cl`, the melting point fell in the range of 168 to 170 °C.

Regarding `CCC(=O)n1c(=O)[nH]c(=O)n1C(=O)CC`, the melting point came out at 208 °C.

In turn, `CC(C)OCC(COC(C)C)OCn1cnc2cnc(N)nc21` yielded a melting point of 89 to 90 °C.

As to `N#CCNC(=O)c1nn(C2CCCCO2)cc1NC(=O)c1ccccn1` (centres undefined), the melting point is 213 to 214 °C.

`CCCCOC(=O)C1=C(C)NC(C)=C(C(=O)OC)C1c1cccc([N+](=O)[O-])c1` (centres undefined) registered a melting point of 69 to 70 °C.

Consider `CCOC(=O)Cn1c(-c2cc3c(cc2[N+](=O)[O-])OCO3)nc2ccccc21`, for which the melting point is 136 to 138 °C.

For the compound `CC1(C)Nc2ncc(-c3ccc(C(=O)N4CCC[C@H]4CN4CCCC4)cc3)cc2N(Cc2cc(F)ccc2F)C1=O`, the melting point was in the range of 171 to 172 °C.

Compound `O=C(Nc1ccccc1)N1CCC(C2Oc3ccccc3Cn3cccc32)CC1` (centres undefined) yielded a melting point of 167 to 170 °C.

Turning to `CCOC(=O)C(C(=O)OCC)C(CC#N)c1ccc(CC)cc1` (centres undefined), the melting point was 157 to 159 °C.

Compound `COC(=O)CC[C@H](NC(=O)c1ccc(C#Cc2cnc3nc(NC(=O)C(C)(C)C)nc(O)c3c2)s1)C(=O)OC` came in with a melting point of 228 to 230 °C.

In turn, `CCOC(=O)CCc1cn(-c2ccc(C(F)(F)F)cn2)nc1C` returned a melting point of 50 to 51 °C.

As to `N#Cc1cccc2[nH]c(C(=O)O)cc(=O)c12`, the melting point is 278 to 279 °C.

For the compound `Cc1ccc2nc(-c3cccc(C(=O)O)c3)oc2c1`, the melting point lay within 239 to 241 °C.

In turn, `CCOC(=O)c1cc2ccc3c(c4ccccc4n3CC)c2n1C` showed a melting point of 116 °C.

Consider `COc1ccc(Nc2nc(NC3CCCCCC3)nc(Oc3ccc(C=O)cc3)n2)cc1Cl`, for which the melting point fell in the range of 218 to 220 °C.

`Cc1cccc(-c2[nH]c(C(C)C)nc2-c2ccc(F)c(-c3ccc(S(C)(=O)=O)cc3)c2)n1` displayed a melting point of 113 to 115 °C.

`CCSC(=O)OCOC(=O)COc1nc(Cl)c(Cl)cc1Cl` showed a melting point of 70 to 71 °C.

`OC(c1ccc2c(c1)CCN2)(C(F)F)C(F)F` yielded a melting point of 130 to 134 °C.

Compound `COc1ccccc1C1OC(=O)NC1=O` (centres undefined) returned a melting point of 175 to 177 °C.

`Cc1cccc(C(N)=O)c1Nc1nc(Nc2ccc3c(c2)C(C)(C)CCC(=O)N3)ncc1Cl` yielded a melting point of 220 to 222 °C.

As to `CC(=O)ONC(=N)c1ccc(-c2cccc(-c3nc4ccc(C(=N)NOC(C)=O)cc4[nH]3)n2)cc1`, the melting point fell in the range of 150 to 153 °C.

The compound `CCN(C=C1C(=O)N(c2cccc(Cl)c2)c2ccccc21)CC` came in with a melting point of 74 to 75.5 °C.

Compound `Clc1ccccc1-c1n[nH]c(SCc2ccccc2)n1` came in with a melting point of 84 to 86 °C.

For the compound `COC1CSC2=C(SC1)C(OC(=O)N1CCN(C(=O)C(C)C)CC1)N(c1ccc3ccc(Cl)nc3n1)C2=O` (centres undefined), the melting point was 232 °C.

Regarding `CCS(=O)(=O)Nc1cc(C2CCCCC2)cc2c1CCCC2c1c[nH]cn1` (centres undefined), the melting point lay in the range of 207 to 209 °C.

In turn, `CC(C(O)c1ccc(N)cc1)N1CCC(Cc2ccccc2)CC1` (single isomer, unassigned; (-)) came in with a melting point of 104 to 107 °C.

The compound `c1ccc(CNc2cc(N3CCCC3)nc(N3CCCC3)n2)cc1` came in with a melting point of 70 to 72 °C.

`Cc1sc(-c2ccc(OC(F)(F)F)cc2)cc1-c1nc(-c2c(F)cccc2Cl)nn1C` had a melting point of 153 to 155 °C.

Turning to `O=S1(=O)NCCNc2ccc(Oc3cccc(CO)c3)cc21`, the melting point was 146 °C.

`CC(=O)Nc1ccc(O)c(C)c1C` yielded a melting point of 184 to 185 °C.

In turn, `COc1cc(C=CC(=O)C(Cc2ccccc2)C(=O)C=Cc2ccc(O)c(OC)c2)ccc1O` (centres undefined) registered a melting point of 139 to 141 °C.

For `COc1ccc(-c2nc3cc(C(N)=O)ccc3[nH]2)c2ccc(C(F)(F)F)nc12`, the melting point fell in the range of 205 to 207 °C.

Consider `CCc1ccc2c(c1)CC(=O)N2`, for which the melting point was in the range of 136 to 137 °C.

The compound `Nc1ncn(C2OC(CO)C(O)C2O)c2nc(=O)sc1-2` (centres undefined) yielded a melting point of 132 to 134 °C.

In the case of `NC(=O)Cc1nc(C(=O)c2ccc(F)cc2)no1`, the melting point was in the range of 197 to 199 °C.

`COC(=O)c1ccc(OCCNC(=O)C2Cc3ccccc3N2S(=O)(=O)c2ccc(-c3cccc(C(F)(F)F)c3)cc2)c(Cl)c1` (centres undefined): the melting point was in the range of 84 to 88 °C.

In the case of `COc1ccc(C=CCC#N)cc1`, the melting point was 75 to 76 °C.

For the compound `Cc1ccc(C2=NN(c3ccccc3)C(=O)C2)cc1`, the melting point lay in the range of 112 to 113 °C.

In turn, `CC(=O)N1CCN=C1Nc1cc(C)nn1-c1ccccc1C` came in with a melting point of 160 to 161 °C.

As to `CCCn1c(=O)c2[nH]c(/C=C/c3cccc(Cl)c3)nc2n(CCC)c1=O`, the melting point was 259 °C.

With `Clc1cc(NCCc2ccccc2)c2ccccc2n1`, the melting point is 132 to 133 °C.

`CC(C)=NOCC(=O)O` yielded a melting point of 76 °C.

Take `COc1ccc(Cc2cc(O)ccc2OC)nc1`: the melting point was in the range of 115 to 122 °C.

Regarding `Cc1cc(C(=O)O)ccc1C#CCc1ccc2c(c1)C(C)(C)CCC2(C)C`, the melting point fell in the range of 196 to 197 °C.

In turn, `COc1cc(-c2ccccc2)c(OCC(=O)O)c(-c2ccccc2)c1` gave a melting point of 143 to 145 °C.

Turning to `O=C(O)CCCCCCc1ncsc1C(=O)O`, the melting point was 151 to 153 °C.

`COc1cc(C(N)=O)ccc1-c1nc2cc3c(cc2[nH]1)NC(=O)C3(C)C`: the melting point is 265 to 270 °C.

`O=C(O)c1ccc2c(c1)Sc1ccccc1CC2` displayed a melting point of 196 to 198 °C.

`O=C(NCC(c1ccccc1)c1ccccc1)N1CCC(=C(c2ccccc2)c2ccccc2)CC1` returned a melting point of 158 to 160 °C.

In turn, `CC(C(=O)O)c1ccc2c(c1)C(=O)Cc1ccccc1O2` (centres undefined) displayed a melting point of 152 to 154 °C.

Consider `CCOC(=O)C(C#N)=CNNc1ccc(C(F)(F)F)cc1[N+](=O)[O-]`, for which the melting point lay in the range of 163 to 164 °C.

For `CCOC(=O)c1cn(-c2nc(F)cs2)c2nc(N3CCC(NC(=O)OC(C)(C)C)C3)ccc2c1=O` (centres undefined), the melting point lay within 233 to 234 °C.

`N#Cc1cnc2c(sc3c([N+](=O)[O-])cccc32)c1Nc1cccc(Br)c1` returned a melting point of 288 to 290 °C.

For the compound `O=C(CCCN1CCOCC1)c1ccc2c(c1)C(=O)c1cc(C(=O)CCCN3CCOCC3)ccc1-2`, the melting point was in the range of 174 to 176 °C.

The compound `COc1c(C2CCN(CCCCNC(=O)c3ccc(-c4ccc(NC(=O)C(F)(F)F)cc4)cc3)CC2)ccc2c1CCCC2` gave a melting point of 226 to 228 °C.

For the compound `CC(Cc1ccc(OCc2ccncc2)cc1)NCC(O)c1cccc(Cl)c1` (centres undefined), the melting point fell in the range of 85 to 110 °C.

`CCN(CC)CCOc1ccc(N2C(=O)C(c3ccccc3)=C3CCCCC32)cc1` (centres undefined): the melting point is 81 °C.

As for `COc1cn(-c2ccc(-c3cnn(C)c3)cc2F)nc(-c2ccnn2-c2ccccc2)c1=O`, the melting point was in the range of 195 to 197 °C.

The compound `C[C@H](NS(=O)(=O)c1ccc2c(Cl)cnc(Cl)c2c1)C(=O)OC(C)(C)C` yielded a melting point of 115 to 119 °C.

Turning to `O=C(Nc1ccccc1)Nc1cccc(-c2ccc(CC34CCCN3C(=O)N(c3cc(Cl)cc(Cl)c3)C4=O)cc2)c1` (centres undefined), the melting point was determined as 150 °C.

`Oc1ccc2cc(-c3cnc(Cc4ccc5ccccc5c4)o3)ccc2c1` came in with a melting point of 188 to 191 °C.

`OCC1CC(O)C(n2c(Br)nc3cc(Cl)c(Cl)cc32)C1` (centres undefined): the melting point lay in the range of 218 to 220 °C.

The compound `COC1(C)Oc2cccc(O)c2O1` (centres undefined) returned a melting point of 106 to 109 °C.

For `Cc1nc2nc(SCc3ccccc3)nn2cc1Cl`, the melting point fell in the range of 160 to 161 °C.

The compound `CSc1ccc(C=C2C(C)=C(CC(=O)O)c3cc(F)ccc32)cc1` yielded a melting point of 187 to 188 °C.

Compound `CCCCCCCCCCCCN(Cc1cccnc1)S(C)(=O)=O` yielded a melting point of 43 to 44 °C.

On to `COC(=O)c1cc(C(=O)O)cc(-n2cccc2)c1`, for which the melting point lay within 178 to 179 °C.

`CC(=O)Nc1ccc(-n2ccnc2SCc2ccccc2N2CCOCC2)nc1` came in with a melting point of 164 to 167 °C.

With `COc1ccnc2c1C(=O)CC(c1ccccc1Cl)C2` (centres undefined), the melting point was in the range of 116 to 117 °C.

Take `NC(=NN=Cc1c(Cl)cccc1Cl)Nc1c(Cl)cccc1Cl`: the melting point was in the range of 230 to 231 °C.

The compound `CNC1c2ccccc2CC1N1CCCCC1` (centres undefined) returned a melting point of more than 260 °C.

The compound `COC1=C(Br)C(=O)O/C1=C\c1ccccc1C(F)(F)F` showed a melting point of 136 to 138 °C.

Compound `Cc1nnc2n1-c1sc(C#CCn3c(=O)c4ccccc4c4ccccc43)cc1C(c1ccccc1Cl)=NC2` showed a melting point of 247 to 249 °C.

With `COC(=O)c1ccc(CCC2CNc3nc(NC(=O)C(C)(C)C)nc(O)c3C2)[nH]1` (centres undefined), the melting point fell in the range of 246 to 248 °C.

For the compound `CC(C)NC(=O)c1cnc(N2CCC(N3C(=O)OCc4ccccc43)CC2)c(Cl)c1`, the melting point came out at 216 °C.

As for `COc1ccc(OC(F)(F)F)cc1[C@H]1CO[C@]2(CCCN[C@H]2c2ccccc2)C1`, the melting point was 91 to 104 °C.
